How the values were obtained:
[1] = molecular target: T1, rM4 receptors (Rattus norvegicus, UniProt P08485); experiment: Rat M4 PAM pERK assay; format: cell-based; conditions: CHO cells expressing rM4; with EC20 of acetylcholine (10 nM final)
T1 construct: expressed in transfected cells; host or cells: CHO cells
T1 sequence (P08485 1-478): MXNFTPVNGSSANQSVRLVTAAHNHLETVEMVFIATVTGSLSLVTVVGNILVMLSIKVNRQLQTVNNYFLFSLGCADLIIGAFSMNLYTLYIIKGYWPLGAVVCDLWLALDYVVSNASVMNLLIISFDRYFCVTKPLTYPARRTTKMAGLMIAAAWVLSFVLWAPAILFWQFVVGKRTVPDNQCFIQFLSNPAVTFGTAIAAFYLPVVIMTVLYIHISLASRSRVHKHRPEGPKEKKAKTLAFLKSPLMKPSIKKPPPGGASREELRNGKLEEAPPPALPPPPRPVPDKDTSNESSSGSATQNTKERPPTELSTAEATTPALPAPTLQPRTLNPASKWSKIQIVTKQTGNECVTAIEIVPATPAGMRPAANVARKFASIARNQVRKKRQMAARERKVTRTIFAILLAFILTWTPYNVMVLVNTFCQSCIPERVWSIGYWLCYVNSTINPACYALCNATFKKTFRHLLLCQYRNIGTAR
Description: (§1) Chinese hamster ovary (CHO) cells expressing either hM4 or rM4 receptors were frozen in assay ready vials (5×10^6 cells/vial) after bulking-up in culture. The day before an assay, vial(s) were thawed and cells seeded in 384 well white proxiplates at 1000/well for hM4 cells and at 2000/well for rM4 cells, in 10 μL of growth media (Hams/F12 with glutamax and 10% FCS) and incubated overnight at 37° C./5% CO2.
(§2) On the following morning, the growth media was removed by ‘flicking out’ over a bin, patting the inverted plate onto tissue, and then replacing with 10 μL of wash media (Hams/F12 with glutamax and 8 mM HEPES, NB: serum free). Then, the wash media was removed in the same way and replaced with 8 μL/well of the serum free media. Plates were then re-incubated for a further 4 hours at 37° C./5% CO2.
(§3) Compounds for testing were solubilized to 10 mM in DMSO and compound addition plates, consisting of ten-point concentration response curves (CRC) in duplicate points (10 μM top concentration, ½ log dilution series), were prepared by acoustic dispensing and the compound management group.
(§4) After the 4-hour incubation in serum free media, a 4 μL aliquot of the 3× compound solution containing an EC20 of acetylcholine (10 nM final concentration) was added to the cell plate using a 384 well plate to plate transfer. Then, the plate lid was replaced, and the cells incubated for 5 mins at 37° C./5% CO2. Following this final incubation, all cellular processes were stopped by the addition of 4 μL/well of lysis and blocking buffer and plates were incubated for 30 minutes at RT on an orbital shaker (gentle setting). Then, a final addition of 4 μL/well of antibody detection mix, containing both the Europium-Cryptate (donor) and d2 (acceptor) tagged detection components, was added followed by a further 2-hour incubation at RT, and then the plate was read using a TR-FRET (time resolved fluorescence resonance energy transfer) based protocol.

[2] = molecular target: T2, human M4 receptor (Homo sapiens, UniProt P08173); experiment: M4 GTPγS PAM assay; format: biochemical; conditions: membranes of CHO-K1 cells stably expressing human M4; EC20 acetylcholine 40 nM
T2 construct: expressed in transfected cells; host or cells: CHO-K1 cells (membrane preparation)
T2 sequence (P08173 1-479): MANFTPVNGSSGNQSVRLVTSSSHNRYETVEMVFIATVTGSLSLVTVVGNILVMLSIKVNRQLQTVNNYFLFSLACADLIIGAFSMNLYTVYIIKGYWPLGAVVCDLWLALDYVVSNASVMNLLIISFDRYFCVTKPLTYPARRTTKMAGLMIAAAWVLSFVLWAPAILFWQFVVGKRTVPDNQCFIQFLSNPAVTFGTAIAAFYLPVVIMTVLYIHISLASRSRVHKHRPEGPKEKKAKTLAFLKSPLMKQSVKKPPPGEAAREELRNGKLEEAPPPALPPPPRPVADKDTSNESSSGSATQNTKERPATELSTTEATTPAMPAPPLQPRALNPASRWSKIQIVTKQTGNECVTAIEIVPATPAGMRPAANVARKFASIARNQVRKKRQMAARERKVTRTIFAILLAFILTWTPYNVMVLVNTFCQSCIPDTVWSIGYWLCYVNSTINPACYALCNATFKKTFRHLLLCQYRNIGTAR
Description: The M4 GTPγS PAM method was used. Membranes were prepared for GTPgS binding assays from CHO-K1 cells stably expressing human M4 receptor. Briefly, cells were grown in 5-layer cell culture flasks. Cells were washed with 50 mL of PBS and then dissociated with 0.05% trypsin. Dissociated cells were then collected by centrifugation at 650×g for 8 minutes at 4° C. Pellets were washed again in PBS by centrifugation and resuspended in 30 mL of 20 mM HEPES, 10 mM EDTA, pH 7.4. After sitting on ice for 30 min, membranes were collected by centrifugation at 50000×g for 15′ at 4° C., resuspended in 30 mL of 20 mM HEPES, 0.1 mM EDTA, pH 7.4 and collected again by centrifugation. Pellets were then washed twice by centrifugation in 30 mL of 20 mM HEPES, pH 7.4, and stored at −80° C. until the day of the assay. On the day of the assay, pellets were thawed on ice and resuspended in 1 mL of 20 mM HEPES, pH 7.4, 10 mM MgCl2, 100 mM NaCl using dounce homogenization. Membrane protein concentration is determined by BCA protein assay (Promega, Madison, WI) according to Promega guidelines.
On the day of the assay, serial dilutions of test PAM compounds were brought up in assay buffer (20 mM HEPES, 10 mM MgCl2, 100 mM NaCl) at 4× final assay concentration. […] of membrane homogenates (containing […] of membrane protein) were prepared in assay buffer supplemented with GDP at 4× final assay concentration (final assay concentration of GDP is 5 μM for M2 and 0.1 μM for M4) and dispensed into 96 well polypropylene, U-bottom Greiner plates. […] of vehicle or test PAM compound at 4× of final assay concentration diluted in the assay buffer were added to membrane and plates are incubated for 10-15 minutes at room temperature with gentle shaking. Then, […] of EC20 acetylcholine in assay buffer at 4× final assay concentration was added to assay plates (EC20 final assay concentrations was 40 nM for human M4).
Plates were then incubated, with shaking, for an additional 10-15 minutes. 25 mL of 0.4 nM ^35S-GTP (Perkin Elmer, Waltham, MA) in assay buffer was added to assay mixtures. The binding reaction is left on the shaker for 1 hour at room temperature. Membranes in assay reactions were then transferred to GF/C filter plates (Unifilter, Perkin Elmer) and washed three times using a FilterMate Harvester (Perkin Elmer) with cold assay buffer containing no GDP. Filter plates were then dried at 40° C. overnight followed by the addition of […] of Beta Plate Scintillation liquid. Plates are top and bottom sealed before being read on TopCount scintillation counter (Perkin Elmer, Waltham, MA).

[3] = molecular target: T3, hM4 receptors (Homo sapiens, UniProt P08173); experiment: Human M4 PAM pERK assay; format: cell-based; conditions: CHO cells expressing hM4; with EC20 of acetylcholine (10 nM final)
T3 construct: expressed in transfected cells; host or cells: CHO cells
T3 sequence (P08173 1-479): T2 sequence (P08173 1-479)
Description: as §1, §2, §3, §4

Row | EC50 [1] [nM] | EC50 [2] [nM] | EC50 [3] [nM] | Compound
1 | < 100 | 500 to 2000 | 100 to 500 | Cc1cc(=O)n(C)c2c1CN(C(=O)CC1CC1c1ccc(C(F)(F)F)nc1)C2 (single isomer, unassigned) [Compound I-5]
2 | > 2000 | > 2000 | 500 to 2000 | Cc1c2c(n(C)c(=O)c1Cl)CN(C(=O)CC1CC1c1cc(F)cc(F)c1)C2 (single isomer, unassigned) [Compound I-35]
3 | > 2000 | 500 to 2000 | > 2000 | Cc1c2c(n(C)c(=O)c1C)CN(C(=O)CC1CC1c1cc(F)cc(F)c1)C2 (single isomer, unassigned) [Compound I-22]
4 | 100 to 500 | 100 to 500 | 100 to 500 | Cc1c2c(n(C)c(=O)c1C)CN(C(=O)C[C@@H]1C[C@H]1c1ccc(C(F)(F)F)cc1)C2 (relative stereo) [Compound I-18, 1,3,4-Trimethyl-6-([trans-2-(2-(4-(trifluoromethyl)phenyl)cyclopropyl)]acetyl)-1,5,6,7-tetrahydro-2H-pyrrolo[3,4-b]pyridin-2-one]
5 | 100 to 500 | < 100 | < 100 | Cc1c2c(n(C)c(=O)c1C)CN(C(=O)CC1CC1c1cccc(F)c1F)C2 (stereo not drawn) [Compound I-24]
6 | < 100 | < 100 | < 100 | Cc1c2c(n(C)c(=O)c1Cl)CN(C(=O)CC1CC1c1cc(F)cc(F)c1)C2 (stereo not drawn) [Compound I-34]
7 | < 100 | < 100 | < 100 | Cc1c2c(n(C)c(=O)c1C)CN(C(=O)CC1CC1c1cc(F)cc(F)c1)C2 (single isomer, unassigned) [Compound I-23]
8 | < 100 | < 100 | < 100 | Cc1c2c(n(C)c(=O)c1Cl)CN(C(=O)CC1CC1c1cc(F)cc(F)c1)C2 (single isomer, unassigned) [Compound I-36]
9 | > 2000 | 500 to 2000 | 500 to 2000 | Cc1cc(=O)n(C)c2c1CN(C(=O)CC1CC1)C2 [Compound I-10]
10 | 500 to 2000 | > 2000 | > 2000 | COc1c2c(n(C)c(=O)c1C)CN(C(=O)CC1CC1c1ccc(C(F)(F)F)cc1)C2 (stereo not drawn) [Compound I-30]
11 | > 2000 | > 2000 | > 2000 | Cc1cc(=O)n(C)c2c1CN(C(=O)CC1CC1c1ccc(C(F)(F)F)cc1)C2 (single isomer, unassigned) [Compound I-6]
